# From patent US20210087217A1, “NUCLEOTIDE HEMI-SULFATE SALT FOR THE TREATMENT OF HEPATITIS C VIRUS” (Atea Pharmaceuticals, Inc., priority 2017, published 2021)
# Entries after “also recorded” stand apart in the source; their conditions may differ. Counter-ions that a name gives are not always drawn.
# Experiments:
# [1] = Plasma levels of metabolites following single oral dose of Compound 2, rats; format: in vivo, rat; details: single oral dose of Compound 2
# [2] = Storage of Compound 1 forms and amorphous salts at 25° C./60% RH for 14 days (HPLC, XRPD, observation)
# Experimental: This initial characterization was followed by storage at 25° C./60% relative humidity (RH) for 14 days with analysis by […] and XRPD after 7 and 14 days. FIG. 4A is the XRPD after 14 days at 25° C./60% (RH).
# The samples were then frozen with the solvent removed by lyophilization.
# The samples were then subjected to storage at 25° C./60% relative humidity (RH) for 14 days with analysis by HPLC and XRPD after 7 (FIG. 4B) and 14 days (FIG. 5A).
# [3] = Stability under refrigerator conditions (5 ± 3° C.) of Compound 2; format: physicochemical
# Experimental: Three conditions were tested: accelerated stability (40 2° C./75±5% RH) over a 6-month time period, ambient stability (25±2° C./60±5% RH) over a 9-month period, and stability under refrigerator conditions (5 3° C.) over a 9-month time period. The results for accelerated stability, ambient stability, and refrigerator conditions are shown in Table 23, Table 24, and Table 25, respectively.
# The only impurities detected even after 9 months were those from related substance 1 and water.
# [4] = Plasma profiles of Compound 2 metabolites in monkeys; format: in vivo, cynomolgus monkeys; details: monkeys, single oral 30, 100 or 300 mg/kg Compound 2
smiles,measurement,setting,value
"CNc1nc(N)nc2c1ncn2[C@@H]1O[C@H](CO[P@@](=O)(N[C@@H](C)C(=O)OC(C)C)Oc2ccccc2)[C@@H](O)[C@@]1(C)F [Compound 2, hemi-sulfate salt of isopropyl((S)-(((2R,3R,4R,5R)-5-(2-amino-6-(methylamino)-9H-purin-9-yl)-4-fluoro-3-hydroxy-4-methyltetrahydrofuran-2-yl)methoxy)(phenoxy)phosphoryl)-L-alaninate]",Compound 1 exposure,[1],low levels
same,Metabolite 1-7 levels,[1],high levels
same,Hygroscopicity,[2],not hydroscopic; also recorded: non-hygroscopic
same,Physical/chemical stability and appearance on storage,"[2]; 25° C./60% RH, 14 days",stable white solid
same,Total impurities of related substance 1,"[3]; 5° C., after 9 months",0.01%
same,Water content,"[3]; 5° C., after 9 months",0.32%
same,Appearance,"[3]; 5 ± 3° C., 0 month",White
same,Assay,"[3]; 5 ± 3° C., 0 month",98.8%
same,IR,"[3]; 5 ± 3° C., 0 month",correspond
same,Related Substance 1 Any other single impurity,"[3]; 5 ± 3° C., 0 month",0.01%
same,Related Substance 1 Total Impurities,"[3]; 5 ± 3° C., 0 month",0.01%
same,Water,"[3]; 5 ± 3° C., 0 month",0.45%
same,Appearance,"[3]; 5 ± 3° C., 1st month",White
same,Assay,"[3]; 5 ± 3° C., 1st month",101.1%
same,Related Substance 1 Any other single impurity,"[3]; 5 ± 3° C., 1st month",0.01%
same,Related Substance 1 Total Impurities,"[3]; 5 ± 3° C., 1st month",0.01%
same,Water,"[3]; 5 ± 3° C., 1st month",0.19%
same,Appearance,"[3]; 5 ± 3° C., 3rd month",White
same,Assay,"[3]; 5 ± 3° C., 3rd month",100.2%
same,IR,"[3]; 5 ± 3° C., 3rd month",correspond
same,Related Substance 1 Any other single impurity,"[3]; 5 ± 3° C., 3rd month",0.01%
same,Related Substance 1 Impurity B,"[3]; 5 ± 3° C., 3rd month",0.01%
same,Related Substance 1 Total Impurities,"[3]; 5 ± 3° C., 3rd month",0.03%
same,Water,"[3]; 5 ± 3° C., 3rd month",0.32%
same,Appearance,"[3]; 5 ± 3° C., 6th month",White
same,Assay,"[3]; 5 ± 3° C., 6th month",98.6%
same,IR,"[3]; 5 ± 3° C., 6th month",correspond
same,Related Substance 1 Any other single impurity,"[3]; 5 ± 3° C., 6th month",0.01%
same,Related Substance 1 Total Impurities,"[3]; 5 ± 3° C., 6th month",0.03%
same,Water,"[3]; 5 ± 3° C., 6th month",0.42%
same,Appearance,"[3]; 5 ± 3° C., 9th month",Off-white
same,Assay,"[3]; 5 ± 3° C., 9th month",101.4%
same,IR,"[3]; 5 ± 3° C., 9th month",correspond
same,Related Substance 1 Any other single impurity,"[3]; 5 ± 3° C., 9th month",0.01%
same,Related Substance 1 Total Impurities,"[3]; 5 ± 3° C., 9th month",0.01%
same,Water,"[3]; 5 ± 3° C., 9th month",0.32%
same,Stability,"[3]; refrigerator conditions (5° C.), 9 months",very chemically stable; also recorded: stable
same,Dose proportionality of metabolite 1-7 exposures,[4],somewhat less than dose-proportional
same,Dose proportionality of plasma exposures (AUC) of Compound 1,[4],roughly dose-proportional
